Test results: patent US10973933B2, “Nanoparticles for diagnosis and treatment of tumors” (GWANGJU INSTITUTE OF SCIENCE AND TECHNOLOGY, priority 2015, dated 2021)

Tests used:
[1] = Photothermal properties of solutions under 808 nm NIR laser; settings: 1 W/cm^2, ICG 10 μg/ml
Description: 500 μl of each of the solutions was placed in a centrifuge tube and irradiated with an NIR laser beam at a power density of 1 W/cm^2 and temperature change of the solutions receiving the laser beam was measured in real time by an infrared (IR) thermal imaging system (FLIR SC-300, FLIR Systems Inc., Danderyd, Sweden).

[2] = In vitro laser induced phototherapy, cell viability; format: cell-based; settings: mouse, SCC7 cells, PB 80 μg/ml, ICG 10 μg/ml, read-out: cell viability without laser treatment
Description: (§1) Next, the cells were completely cleaned and fresh medium was added to each of the wells. Next, the cells were irradiated with an 808 nm NIR laser beam for 5 minutes.
(§2) After laser irradiation, the cells were further cultured for 12 hours, and cell viability was measured by WST-1 analysis.

SCC7 cells [3] = experiment: as above; format: cell-based; settings: Mus musculus, SCC-7, light or radiation study, 5 min, 808 nm, 1 W/cm^2, 5 minutes, PB 80 μg/ml, ICG 10 μg/ml, read-out: cell viability after NIR laser irradiation
Description: as §1, §2

SCC7 cells [4] = experiment: Intracellular singlet oxygen generation with H2DCF-DA probe; format: cell-based; settings: SCC7, after 808 nm laser irradiation
Description: Further, free ICG has photodynamic properties and can generate singlet oxygen (^1O2) when exposed to an 808 nm NIR laser beam. Generation of intracellular singlet oxygen (^1O2) was analyzed using 2′,7′-dichlorodihydrofluorescein diacetate (H2DCF-DA) dye as a reactive oxygen species (ROS) probe.

SCC7 tumor [5] = experiment: In vivo and ex vivo NIR fluorescence bio-distribution (IVIS); set-up: species or system mice
Description: The same group of mice was investigated as to NIR fluorescence signals by an in vivo imaging system (IVIS).
The free ICG solution (2 mg/kg) was injected into other mice as a control group for IVIS imaging. […] Gradual reduction of the signals means that free ICG molecules were quickly discharged from the bodies of the mice (FIG. 8b).
In-vivo bio-distribution of the PB-BSA-ICG nanoparticles and free ICG was analyzed by optical fluorescence imaging. […] Fluorescence signals in the mice subjected to injection of free ICG (2 mg/kg) were also recorded at time intervals similar to those set forth above.
The mice were sacrificed 24 hours after injection, and fluorescence signals (liver, lung, spleen, heart, and kidney) from resected tumors and major organs were measured.

SCC7 tumor [6] = format: in vivo
Description: 24 hours after injection, tumor sites of all of the mice were irradiated with a continuous wave NIR laser beam (808 nm, 1 W/cm^2, 10 minutes) for phototherapy, and real-time temperature increase during laser irradiation was monitored by an IR thermal camera (FIGS. 10a and 10b).
In-vivo phototherapy: The tumor-xenograft mice were produced in the same manner as described above. The mice, in which tumors had grown to a desired volume (about 100 mm^3), were divided into four groups, that is, a saline solution group, a free ICG group, a PB-BSA nanoparticle group, and PB-BSA-ICG nanoparticle group. According to the groups, each sample was injected into a vein of the corresponding mouse (administration of 2 mg/kg of ICG, administration of 20 mg/kg of PB).
24 hours after injection, the tumor of each of the mice was exposed to an 808 nm NIR laser beam (1 W/cm^2) for 10 minutes, real-time temperature change of the tumor region during laser treatment was monitored by an IR thermal imaging system. The size of the tumor after treatment was measured at a specific time point using a digital caliper.

[7] = repeated laser irradiation, 3 minutes per cycle
[8] = 808 nm, 1 W/cm^2, 10 minutes, 24 hours after injection

CC1(C)C(/C=C/C=C/C=C/C=C2\N(CCCCS(=O)(=O)O)c3ccc4ccccc4c3C2(C)C)=[N+](CCCCS(=O)(=O)[O-])c2ccc3ccccc3c21 [free ICG, Indocyanine green]
temperature increase ([1]; laser irradiation for 5 minutes, 808 nm, PB 80 μg/ml): 10 °C
temperature increase, first cycle [1, 7]: about 10 °C
temperature increase, second cycle [1, 7]: about 6 °C
temperature increase, third cycle [1, 7]: 2.5 °C
viability at 24 h, 10 μg/ml [2]: ~100%
viability at 10 µg/mL (SCC7 cells [3]): 55%
intracellular ^1O2 generation (green fluorescence of H2DCF-DA) (SCC7 cells [4]): intracellular green fluorescence signals were observed
in vivo NIR fluorescence signal distribution (SCC7 tumor [5]; 3 hours after injection, 2 mg/kg): strong signals at liver sites
ex vivo fluorescence signals of livers (SCC7 tumor [5]; 24 hours after injection): significantly high fluorescence signals
ex vivo fluorescence signals of tumors (SCC7 tumor [5]; 24 hours after injection): low signals
average temperature increase of tumor (SCC7 tumor [6]; [8]): about 6 °C
final tumor temperature (SCC7 tumor [6]; [8]): 42 °C
tumor response after laser treatment (SCC7 tumor [6]; monitored for 14 days, ICG 2 mg/kg, PB 20 mg/kg): did not exhibit meaningful tumor regression
